According to ChEMBL document CHEMBL1938391, “Design and synthesis of novel photoaffinity probes for study of the target proteins of oleanolic acid” (Bioorg Med Chem Lett, 2012):

Molecular target: T1, Glycogen phosphorylase, muscle form (Oryctolagus cuniculus, UniProt P00489)
T1 sequence (P00489 whole entry): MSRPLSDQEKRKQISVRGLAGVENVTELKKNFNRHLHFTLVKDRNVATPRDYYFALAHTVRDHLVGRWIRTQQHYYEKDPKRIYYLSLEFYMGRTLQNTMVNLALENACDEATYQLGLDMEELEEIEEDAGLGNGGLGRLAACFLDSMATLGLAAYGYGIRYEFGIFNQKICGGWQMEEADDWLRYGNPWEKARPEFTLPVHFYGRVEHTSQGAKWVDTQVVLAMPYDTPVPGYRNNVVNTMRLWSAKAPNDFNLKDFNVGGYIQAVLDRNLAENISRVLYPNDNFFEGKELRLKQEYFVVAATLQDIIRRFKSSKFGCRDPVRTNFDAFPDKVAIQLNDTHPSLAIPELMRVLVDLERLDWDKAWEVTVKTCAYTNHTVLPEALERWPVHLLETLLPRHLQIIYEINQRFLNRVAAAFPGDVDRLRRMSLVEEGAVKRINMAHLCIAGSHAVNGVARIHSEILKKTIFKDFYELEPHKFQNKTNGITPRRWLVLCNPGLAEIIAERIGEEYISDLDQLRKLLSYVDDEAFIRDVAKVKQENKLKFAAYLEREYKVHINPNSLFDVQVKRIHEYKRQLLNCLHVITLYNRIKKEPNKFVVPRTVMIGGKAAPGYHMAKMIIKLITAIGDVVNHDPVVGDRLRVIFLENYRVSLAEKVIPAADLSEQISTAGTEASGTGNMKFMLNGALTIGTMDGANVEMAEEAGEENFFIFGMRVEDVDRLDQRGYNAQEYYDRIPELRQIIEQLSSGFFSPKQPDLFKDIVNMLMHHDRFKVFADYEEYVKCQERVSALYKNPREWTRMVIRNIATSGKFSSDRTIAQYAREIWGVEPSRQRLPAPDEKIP
Assay: Inhibition of rabbit muscle glycogen phosphorylase a assessed as release of phosphate from glucose-1-phosphate after 25 mins using malachite green staining

CC1(C)CC[C@]2(C(=O)O)CC[C@]3(C)C(=CC[C@@H]4[C@@]5(C)CC[C@H](OC(=O)COCCOCCNC(=O)c6ccc(C(=O)c7ccc(NC(=O)CCCC[C@@H]8SC[C@@H]9NC(=O)N[C@@H]98)cc7)cc6)C(C)(C)[C@@H]5CC[C@]43C)[C@@H]2C1
IC50: 41.1 µM

CC1(C)CC[C@]2(C(=O)O)CC[C@]3(C)C(=CC[C@@H]4[C@@]5(C)CC[C@H](OC(=O)COCCOCCNC(=O)c6ccc(C(=O)c7ccc(NC(=O)CN=[N+]=[N-])cc7)cc6)C(C)(C)[C@@H]5CC[C@]43C)[C@@H]2C1
IC50: 115 µM
